Some test systems named below: KM12; NCI-H522; NCI-H23; SNB-19; MDA-MB-435; SK-MEL-5; LOX IMVI; SK-MEL-2; EKVX; MCF7; CCRF-CEM; SNB-75; Hs-578T; NCI-H226; RXF 393; MDA-MB-231; HCT-15; A549; K562; TK-10.
Common to all, as to test: NCI-60 cell line screen, 48 h

SMILES strings stand for the structures.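 Growth conditions: 96-well plates. Treatment: test compound, 48 hours, 5 concentrations. Analysis: linear interpolation between bracketing concentrations; unreached endpoints set to highest concentration. GI50 is the concentration that inhibits growth by half.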 Active and inactive are the calls of the source. Cut-off read from the data, not from the text of the source: active = GI50 up to about 1.1 µM and inactive = higher.

In the case of `NC1=NC(NCC2(CO)CCC2)=CC(OCC2(CO)CCC2)N1` (centres undefined), the GI50 with KM12 was > 100 µM (inactive); with NCI-H522 it was > 100 µM (inactive); in the assay on NCI-H23, 26.2 µM (inactive); with SNB-19, > 100 µM (inactive); in the assay with MDA-MB-435 it was > 100 µM (inactive); with SK-MEL-5, 79.3 µM (inactive). The GI50 with LOX IMVI, in the assay with SK-MEL-2, in the assay with EKVX, in the assay with MCF7, with CCRF-CEM and with SNB-75 was > 100 µM (inactive) throughout. The GI50 was > 100 µM (inactive) in the assay on Hs-578T; > 100 µM (inactive) in the assay on NCI-H226; > 100 µM (inactive) with RXF 393; > 100 µM (inactive) in the assay with MDA-MB-231; over 100 µM in the assay on HCT-15; > 100 µM (inactive) in the assay on A549. The GI50 with K562 was 44.8 µM (inactive).
As for `Cc1ccc(NC(=O)c2cccc(OP(=O)(Nc3ccc(C)cc3)Nc3ccc(C)cc3)c2)cc1`, the GI50 was 5.5 µM (inactive) with KM12; 7.52 µM (inactive) with TK-10; 2.78 µM (inactive) in the assay on NCI-H522; 10.9 µM (inactive) with NCI-H23; 35.1 µM (inactive) with SNB-19; 7.48 µM (inactive) in the assay with MDA-MB-435. The GI50 in the assay with SK-MEL-5 was 13.2 µM (inactive); with LOX IMVI it was 10.9 µM (inactive); with SK-MEL-2, 15.3 µM (inactive); with EKVX, 7.94 µM (inactive); in the assay with MCF7, 5.62 µM (inactive); with CCRF-CEM it was 13.8 µM (inactive). In addition, the GI50 in the assay with SNB-75 is 4.14 µM (inactive); with Hs-578T, 6.3 µM (inactive); with NCI-H226, 8.04 µM (inactive); with RXF 393 it was 1.91 µM (inactive); in the assay on MDA-MB-231, 3.32 µM (inactive); with HCT-15 it was 6.01 µM. The GI50 with A549 was 3.46 µM (inactive); in the assay with K562, > 100 µM (inactive).
Regarding `COC(OC)(c1ccccc1)C(I)I`, the GI50 in the assay on KM12 is 16.3 µM (inactive); in the assay on TK-10 it was 13.3 µM (inactive); with NCI-H522 it was 2.5 µM (inactive); with NCI-H23, 19.2 µM (inactive); in the assay on SNB-19 it was 35.3 µM (inactive); in the assay with MDA-MB-435 it was 4.37 µM (inactive). Besides, the GI50 in the assay on SK-MEL-5 is 8.61 µM (inactive); in the assay on LOX IMVI, 13.4 µM (inactive); in the assay with SK-MEL-2, 13.8 µM (inactive); with EKVX it was 12 µM (inactive); in the assay with MCF7, 18.7 µM (inactive); with CCRF-CEM, 2.31 µM (inactive). Also, the GI50 in the assay with SNB-75 was 13.1 µM (inactive); in the assay with Hs-578T, 20.1 µM (inactive); in the assay with NCI-H226, 20.8 µM (inactive); in the assay on RXF 393 it was 2.32 µM (inactive); with MDA-MB-231 it was 18.9 µM (inactive); with HCT-15 it was 6.61 µM. Besides, the figures for the GI50 with A549 and in the assay with K562 were 18.5 µM (inactive) and 2.58 µM (inactive), respectively.
For the molecule `COc1cc2nc(-c3ccccc3)cc(O)c2cc1OC`, the GI50 with KM12 is 3.81 µM (inactive); in the assay with TK-10, 55.8 µM (inactive); in the assay with NCI-H522, 5.83 µM (inactive); in the assay with NCI-H23, 21.8 µM (inactive); in the assay on SNB-19, 25.2 µM (inactive); in the assay with MDA-MB-435 it was 2.86 µM (inactive). For the same molecule, the GI50 in the assay with SK-MEL-5 is 5.78 µM (inactive); in the assay with LOX IMVI, 10.7 µM (inactive); in the assay with SK-MEL-2, 22.4 µM (inactive); in the assay with EKVX it was > 100 µM (inactive); in the assay on MCF7 it was 2.54 µM (inactive); with CCRF-CEM it was 8 µM (inactive). For the same molecule, the GI50 in the assay on SNB-75 was 12.1 µM (inactive); in the assay with Hs-578T it was 25.1 µM (inactive); in the assay with NCI-H226, 14.4 µM (inactive); in the assay on RXF 393, 21.2 µM (inactive); in the assay on MDA-MB-231 it was 26.7 µM (inactive); in the assay with HCT-15 it was 10.2 µM. Also, the GI50 with A549 was 18.5 µM (inactive); with K562 it was 4.76 µM (inactive).
For `CCCCC(=O)OC[n+]1ccc(-c2c(COC(=O)NC(C)C)c(COC(=O)NC(C)C)c3n2CCC3)cc1`, the GI50 in the assay on KM12 is > 100 µM (inactive); in the assay with TK-10, > 100 µM (inactive); with NCI-H522, 30.5 µM (inactive); in the assay on NCI-H23, 53.6 µM (inactive); in the assay with SNB-19, > 100 µM (inactive); with MDA-MB-435, > 100 µM (inactive). In addition, the GI50 is > 100 µM (inactive) in the assay on SK-MEL-5; 47.9 µM (inactive) in the assay on LOX IMVI; > 100 µM (inactive) in the assay on SK-MEL-2; > 100 µM (inactive) with EKVX; 50.8 µM (inactive) in the assay on MCF7; 33.7 µM (inactive) in the assay on CCRF-CEM. The GI50 was 60.3 µM (inactive) in the assay with SNB-75; > 100 µM (inactive) in the assay on Hs-578T; > 100 µM (inactive) in the assay on NCI-H226; 64 µM (inactive) in the assay with RXF 393; > 67.6 µM (inactive) in the assay on MDA-MB-231; over 100 µM in the assay with HCT-15. The GI50 in the assay with A549 is > 100 µM (inactive); in the assay with K562 it was > 90.8 µM (inactive).
As for `CCCC[C@H]1C(=O)O[C@H](C)[C@H](NC(=O)c2cccc(NC=O)c2OC)C(=O)O[C@@H](C)[C@@H]1OC(=O)C(C)CC.CCCC[C@H]1C(=O)O[C@H](C)[C@H](NC(=O)c2cccc(NC=O)c2OC)C(=O)O[C@@H](C)[C@@H]1OC(=O)CC(C)C` (some centres undefined), the GI50 in the assay on KM12 was 11.6 µM (inactive); with TK-10, 12.9 µM (inactive); in the assay on NCI-H522, 8.51 µM (inactive); with NCI-H23 it was 7.36 µM (inactive); in the assay on SNB-19, 9.44 µM (inactive); with MDA-MB-435, 10.3 µM (inactive). For the same molecule, the GI50 is 12 µM (inactive) in the assay on SK-MEL-5; 10.3 µM (inactive) with LOX IMVI; 6.07 µM (inactive) with SK-MEL-2; 11 µM (inactive) in the assay with EKVX; 12.5 µM (inactive) with MCF7; 3.32 µM (inactive) in the assay on CCRF-CEM. In addition, the GI50 in the assay with SNB-75 is 8.02 µM (inactive); in the assay on Hs-578T, 17.7 µM (inactive); in the assay on NCI-H226, 12.2 µM (inactive); with RXF 393, 14.1 µM (inactive); in the assay with MDA-MB-231 it was 12.1 µM (inactive); in the assay on HCT-15 it was 12.8 µM. The GI50 with A549 was 10.3 µM (inactive); with K562 it was 12.2 µM (inactive).
In the case of `O=C(NC(O)(C(F)(F)F)C(F)(F)F)c1ccccc1`, the GI50 with KM12, in the assay with TK-10, with NCI-H522, in the assay with NCI-H23, in the assay with SNB-19 and in the assay with MDA-MB-435 was > 100 µM (inactive) each time. Besides, the GI50 with SK-MEL-5, with LOX IMVI, with SK-MEL-2, in the assay with EKVX, in the assay on MCF7 and in the assay with CCRF-CEM was > 100 µM (inactive) each time. For the same molecule, the GI50 with SNB-75 was > 100 µM (inactive); in the assay with Hs-578T, > 100 µM (inactive); in the assay on NCI-H226, 51.6 µM (inactive); in the assay on RXF 393 it was > 100 µM (inactive); with MDA-MB-231, > 100 µM (inactive); in the assay on HCT-15 it was over 100 µM. The GI50 with A549 and with K562 was > 100 µM (inactive) throughout.
As to `O=c1c2ccccc2n2cnc3ccc(NCCNCCO)c1c32`, the GI50 was 1.17 µM (inactive) in the assay on KM12; 2.92 µM (inactive) in the assay with TK-10; 1.49 µM (inactive) in the assay with NCI-H522; 2.16 µM (inactive) in the assay on NCI-H23; 3.78 µM (inactive) with SNB-19; 1.52 µM (inactive) with MDA-MB-435. Further, the GI50 in the assay with SK-MEL-5 was 1.88 µM (inactive); in the assay on LOX IMVI, 1.11 µM (active); in the assay on SK-MEL-2, 3.03 µM (inactive); in the assay with EKVX, 2.56 µM (inactive); in the assay on MCF7, 2.52 µM (inactive); with CCRF-CEM, 1.22 µM (inactive). For the same molecule, the GI50 is 1.86 µM (inactive) in the assay with SNB-75; 2.37 µM (inactive) in the assay on Hs-578T; 1.29 µM (inactive) in the assay with NCI-H226; 0.757 µM (active) in the assay on RXF 393; 2.31 µM (inactive) with MDA-MB-231; 3.18 µM in the assay with HCT-15. The GI50 is 1.05 µM (active) with A549 and 1.34 µM (inactive) with K562.
As to `COc1cc(-c2[o+]c3cc(O)cc(O)c3cc2O)cc(O)c1O`, the GI50 with KM12 is > 100 µM (inactive); in the assay on TK-10, > 100 µM (inactive); with NCI-H522, 66.5 µM (inactive); in the assay with NCI-H23, > 100 µM (inactive); in the assay on SNB-19 it was > 100 µM (inactive); with MDA-MB-435 it was 19.4 µM (inactive). In addition, the GI50 is > 100 µM (inactive) with SK-MEL-5; 55.8 µM (inactive) with LOX IMVI; > 100 µM (inactive) in the assay on SK-MEL-2; 92.9 µM (inactive) in the assay on EKVX; 21.3 µM (inactive) with MCF7; 25.9 µM (inactive) with CCRF-CEM. Besides, the GI50 with SNB-75 is > 100 µM (inactive); in the assay with Hs-578T it was > 100 µM (inactive); with NCI-H226 it was > 100 µM (inactive); in the assay on RXF 393, > 100 µM (inactive); in the assay on MDA-MB-231, > 100 µM (inactive); in the assay with HCT-15 it was over 100 µM. Further, the GI50 in the assay with A549 and with K562 was > 100 µM (inactive) each time.
On to `O=P(c1ccccc1)(c1ccccc1)N1O[C@@H](c2ccccc2)C=C[C@H]1c1ccccc1`, for which the GI50 is 14.5 µM (inactive) with KM12; 14 µM (inactive) with TK-10; 9.33 µM (inactive) in the assay with NCI-H522; 10.8 µM (inactive) in the assay on NCI-H23; 14.8 µM (inactive) in the assay with SNB-19; 4.2 µM (inactive) in the assay on MDA-MB-435. Also, the GI50 is 11.4 µM (inactive) with SK-MEL-5; 7.19 µM (inactive) with LOX IMVI; 12 µM (inactive) with SK-MEL-2; 10.4 µM (inactive) in the assay with EKVX; 3.4 µM (inactive) in the assay on MCF7; 10.5 µM (inactive) in the assay on CCRF-CEM. For the same molecule, the GI50 with SNB-75 was 13.3 µM (inactive); with Hs-578T, 14.2 µM (inactive); in the assay on NCI-H226 it was 11.9 µM (inactive); in the assay with RXF 393, 10 µM (inactive); in the assay with MDA-MB-231, 8.24 µM (inactive); in the assay with HCT-15, 10 µM. Also, the GI50 in the assay on A549 is 8.81 µM (inactive); in the assay with K562, 6.17 µM (inactive).

These data come from ChEMBL document CHEMBL1201862, “PubChem BioAssay data set” (2004).
